Patent publication US20250041272A1, “COMPOSITIONS AND METHODS FOR TREATING CANCER VIA PTP1B INHIBITION” (priority 2021, published 2025)

Tests used:
LLC tumors = assay: Subcutaneous LLC tumor model; type: in vivo, mouse
Description: Tumor implantation, treatment and harvest. For animal studies, 1*10^5 B16F10 luciferase-tagged melanoma cells, 1*10^6 GEMM6 melanoma cells or 2*10^6 LCC cells were implanted subcutaneously into C57BL/6J mice (randomized, both males and females, 000664 The Jackson laboratory). When indicated, mice received intraperitoneal injections 7 days after implantation with 100 μl of 5 mg/kg cisplatin (Tocris), 100 μl of 10 mg/kg BVT948 (Tocris) or 100 μl of 30 mg/kg of vemurafenib. 5 mice were used per experimental group and tumors were harvested when they reached 1.5 cm in any direction.
Immunohistochemistry analysis. Immunohistochemistry assay was carried out in formalin-fixed, paraffin-embedded 4 μm sections using primary antibodies against F4:80 (AbD Serotec), CD11b (Abcam), CD4 (eBioscience) or CD8a (eBioscience) on a Discovery Ultra Automated IHC staining system (Ventana). Sections were then imaged using a ScanScope XT microscope (Aperio) and quantified using Aperio software.

[1] = system: macrophage M1 associated gene expression; assay: Cisplatin treated transwell co-culture of macrophages and B16F10 cells, qRT-PCR; type: cell-based, mouse
Description: (§1) Peritoneal macrophage isolation and culture. Peritoneal macrophages were done as described previously(65) from 8-week-old C57BL/6J mice (randomized, both male and female). PBS (Gibco) was injected in the mural peritoneal cavity to release the macrophages. After recovering, cells were centrifuged at 1200 rpm for 5 minutes, resuspended in DMEM high glucose, 10% FBS, 1% penicillin-streptomycin (Gibco) and plated. 2 hours after the last step, cells were washed with PBS and maintained in DMEM/F12 supplemented with 10% FBS, 1% penicillin-streptomycin and 20 ng/ml of M-CSF (Prospec) for 2 days. Macrophages were treated for 24 hours with 50 ng/ml LPS (Sigma Millipore), 100 ng/ml IFNγ (BioLegend), 300 ng/ml PAM3CSK4 (InvivoGen), 107 cells/ml heat killed Listeria Monocytogenes (HKLM) (InvivoGen), 100 ng/ml Flagellin Salmonella typhimurium standard (InvivoGen), 10 ng/ml FSL1 (InvivoGen), 2.5 ug/ml ssRNA40 (InvivoGen), 2.5 ug/ml CL 075 (Tocris), 5 μM ODN1826, 50 μM Fludarabine (SelleckChem), 50 nM Momelotinib (SelleckChem), 5 μM BVT948 (Sigma Millipore), 200 μM PTP1b inhibitor III (Santa Cruz Biotechnology Inc.), 5 μM NSC87877 (Santa Cruz Biotechnology Inc.), 50 μM PTP1b inhibitor (Cayman), 1 mM PTP Inhibitor IV (Santa Cruz Biotechnology Inc.), 1 μM TSC401, 300 nM UNC2371 (SelleckChem), 300 nM BMS777607 (SelleckChem), 300 nM LDC1267 (SelleckChem) 1.5 μg/ml recombinant Pros1 (R&D systems), 200 ng/ml recombinant Gas6 (R&D systems) or 10-500 μM Cisplatin (Tocris). All components were added as described in the text. Cell culture. B16F10 (CRL-6475, ATCC), Lewis lung carcinoma (LLC) (CRL-1642, ATCC), KPC2713 (Yuliya Pylayeva-Gupta laboratory, UNC) and MDA-MB-231 (HTB-26, ATCC) were cultured in DMEM high glucose supplemented with 10% FBS, 1% penicillin-streptomycin (Gibco). GEMM6 (Dr. Alisha Holtzhausen, UNC), KPPC4662 (Dr. Yuliya Pylayeva-Gupta laboratory, UNC), KPPC4548 (Yuliya Pylayeva-Gupta laboratory, UNC) and E0771 (CRL-3461, ATCC) were maintained in RPMI 1640 supplemented with 10% PBS, 1% penicillin/streptomycin (Gibco) while PyMT cells were cultured in Ham's F-12K with 10% FBS, 1% penicillin-streptomycin (Gibco). Transwell assays were performed in 0.4 μm polyester membrane insert culture plates (Corning). 500,000 cells of each line were plated per well in DMEM/F12 supplemented with 10% FBS, 1% penicillin-streptomycin and 20 ng/ml of M-CSF for culture with mouse macrophages. SC cells (CRL-9855, ATCC) were cultured in IMDM with 10% FBS and 1% penicillin-streptomycin (Gibco). In transwell experiments with the SC cell line, cancer cells were also resuspended in IMDM media.
qRT-PCR. RNA was isolated using the RNeasy Plus Mini Kit (Quiagen) and cDNA was prepared using the Reverse Transcription System (Promega) with one-hour reverse transcription process. qRT-PCR was done using the PowerUp™ SYBR™ Green Master Mix (Applied Biosystems) on a QuantStudio Pro Real-time PCR system (Applied Biosystems) with a 95° C. pretreatment of 10 min, 50 cycles of 95° C., 10 sec and 60° C., 1 min and melt curve at the end. Analysis was performed with the 2^−ΔΔCT method(136).

[2] = system: MyD88 protein in macrophages; assay: Immunofluorescent staining of M1 macrophages cultured in B16F10 conditioned medium; type: cell-based, mouse; settings: 24 hours
Description: Immunofluorescence staining and quantitation. After treatments, mouse macrophages were fixed with 4% formaldehyde (Electron Microscopy Sciences) and permeabilized with acetone (Fisher scientific). Samples were blocked using BlockAid blocking solution (Thermofisher scientific), were incubated with primary antibodies to MyD88 (Cell signaling), CD86 (Biolegend) and total STAT1 (Cell signaling) and Alexa Fluor 488-labeled secondary antibody (LifeTech) and were mounted with SlowFade Gold Antifade Mountant with DAPI (Invitrogen). Images were taken with using a BZ-X810 all-in-one fluorescence microscope (Keyence). Fluorescence intensity was measured with BZ-X800 software while colocalization was analyzed using ImageJ software with JACoP plugin (NIH)

[3] = system: Stat1 phosphorylation and MyD88 in macrophages; assay: Transwell co-culture of M1 induced macrophages with tumor cells plus inhibitors (Western blot, qRT-PCR); type: cell-based, mouse; settings: 24 hours
Description: as §1, with “GEMM6 (Dr. Alisha Holtzhausen, UNC), KPPC4662 (Dr. Yuliya Pylayeva-Gupta laboratory, UNC), KPPC4548 (Yuliya Pylayeva-Gupta laboratory, UNC) and E0771 (CRL-3461, ATCC) were maintained in RPMI 1640 supplemented with 10% PBS, 1% penicillin/streptomycin (Gibco) while PyMT cells were cultured in Ham's F-12K with 10% FBS, 1% penicillin-streptomycin (Gibco). Transwell assays were performed in 0.4 μm polyester membrane insert culture plates (Corning). 500,000 cells of each line were plated per well in DMEM/F12 supplemented with 10% FBS, 1% penicillin-streptomycin and 20 ng/ml of M-CSF for culture with mouse macrophages. SC cells (CRL-9855, ATCC) were cultured in IMDM with 10% FBS and 1% penicillin-streptomycin (Gibco). In transwell experiments with the SC cell line, cancer cells were also resuspended in IMDM media.” left out

BVT948
LLC tumor growth reduction, monotherapy (LLC tumors; BVT948 10 mg/kg or Cisplatin 5 mg/kg intraperitoneal, treatment from 50 mm^3): 30%
decrease in LLC tumor growth, combination (LLC tumors; BVT948 in combination with Cisplatin): roughly 50%
tumor viability (H&E staining) (LLC tumors; BVT948 monotherapy, LLC tumors): not significantly changed
macrophage pro-inflammatory gene expression, PTP1b inhibition in combination with Cisplatin ([1]; BVT948 with Cisplatin 50 μM to 500 μM, wildtype macrophages with B16F10 cells): able to restore macrophage pro-inflammatory gene expression, in a dose dependent manner
M1 gene expression in MyD88 knockout macrophages ([1]; increasing Cisplatin, with or without BVT948): Neither increasing concentrations of Cisplatin, nor PTP1 b inhibition, were able to restore M1 gene expression
MyD88 protein level and localization [2]: increased MyD88
Stat1 phosphorylation at Tyrosine 701 and Serine 727 [3]: increased
